We go through 10 compounds from ChEMBL document CHEMBL1681782, “A novel alkaloid, aristopyridinone A and anti-inflammatory phenanthrenes isolated from Aristolochia manshuriensis” (Bioorg Med Chem Lett, 2011).

Experiment [1] has as its system Neutrophil. The experiment can be described thus: Ratio of Genistein IC50 to compound IC50 for inhibition of fMLP/CB-induced elastase release in human neutrophils. Type of experiment: functional.
Experiment [2] has as its system Neutrophil. The experiment can be described thus: Ratio of Genistein IC50 to compound IC50 for inhibition of fMLP/CB-induced superoxide anion generation in human neutrophils. Type of experiment: functional.
Experiment [3] can be described thus: Antiinflammatory activity in human neutrophils assessed as inhibition of fMLP/CB-induced elastase release after 5 mins. Type of experiment: functional, cell-based. Conditions: Neutrophil.
The nature of experiment [4]: Antiinflammatory activity in human neutrophils assessed as inhibition of fMLP/CB-induced superoxide anion generation after 5 mins. Type of experiment: functional, cell-based. Conditions: Neutrophil.

Values after ≈ are worked out from the molar mass of the structure shown.

As a reminder, the IC50 is the concentration that gives 50% inhibition. In the case of `O=C1Nc2cc3ccc(O)cc3c3c4c(cc1c23)OCO4`, the results for the “Ratio IC50” value in the experiment on Neutrophil [1] and in the experiment with Neutrophil [2] were 35 and 4.5, respectively. Also, the values for the IC50 in experiment [3] and in experiment [4] were 0.2 µg/mL (≈ 0.716 µM) and 0.12 µg/mL (≈ 0.43 µM), respectively.

Turning to `COC(=O)c1cc2c(c3c1c([N+](=O)[O-])cc1c(OC)cccc13)OCO2`, the IC50 in experiment [3] and in experiment [4] was more than 10 µg/mL throughout.

In the case of `NC(=O)c1cc2c(c3c1ccc1ccccc13)OCO2` [ARISTOLAMIDE II], the results for the IC50 in experiment [3] and in experiment [4] were 4.11 µg/mL (≈ 15.5 µM) and more than 10 µg/mL, respectively.

Take `COc1cccc2c1ccc1c(C(N)=O)cc3c(c12)OCO3` [ARISTOLAMIDE]: the IC50 in experiment [3] and in experiment [4] was more than 10 µg/mL each time.

As to `COC(=O)c1cc2c(c3c1ccc1c(OC)cc(OC)cc13)OCO2` [ARISTOLIC ACID METHYL ESTER], the half-inhibitory concentration (IC50) in experiment [3] and in experiment [4] was more than 10 µg/mL in each case.

As for `O=C(O)c1cc2c(c3c1c([N+](=O)[O-])cc1ccc(O)cc13)OCO2` [ARISTOLOCHIC ACID C], the IC50 in experiment [3] and in experiment [4] was more than 10 µg/mL each time.

Consider `COc1cccc2c1cc([N+](=O)[O-])c1c(C(=O)O)cc3c(c12)OCO3` [ARISTOLOCHIC ACID], for which the IC50 in experiment [3] and in experiment [4] was more than 10 µg/mL throughout.

For `COc1cc(O)cc2c1cc([N+](=O)[O-])c1c(C(=O)O)cc3c(c12)OCO3` [ARISTOLOCHIC D], the IC50 is 8.49 µg/mL (≈ 23.8 µM) in experiment [3] and 5.78 µg/mL (≈ 16.2 µM) in experiment [4].

With `O=c1c(-c2ccc(O)cc2)coc2cc(O)cc(O)c12` [GENISTEIN], the IC50 in experiment [3] worked out at 6.99 µg/mL (≈ 25.9 µM); in experiment [4], 0.54 µg/mL (≈ 2 µM).

`COC(=O)c1cc2c(c3c1ccc1c(OC)cccc13)OCO2` [METHYL ARISTOLATE]: the IC50 in experiment [3] and in experiment [4] was more than 10 µg/mL each time.
